PubChem BioAssay AID1159564 (GlaxoSmithKline (GSK), 2015)
The source made the active and inactive calls. How the calls were made is not given here.

Tested on: L. donovani-infected THP-1 macrophages, intracellular amastigote imaging
Experiment: antileishmanial activity in infected THP-1 macrophages – imaging, THP-1 host macrophages, host toxicity (AID 1159564)
[1] = measured here: THP-1 host cell toxicity
[2] = measured here: amastigotes per macrophage

## O=C(CN1CCN(S(=O)(=O)c2cccc([N+](=O)[O-])c2)CC1)Nc1ccc(Oc2ccccc2)cc1
  IC50: 7.9 µM
[1]
  IC50: > 50 µM
[2]
  IC50: 2 µM

## CCOc1ccccc1C(=O)Nc1nnc(-c2ccc3c(c2)OCO3)s1
  IC50: 0.5 µM
[1]
  IC50: > 50 µM
[2]
  IC50: 0.32 µM

## CCN(Cc1nc2ccc(C(=O)N3CCN(c4ncccn4)CC3)cc2[nH]1)C1CCCc2cccnc21 (configuration not stated)
  IC50: 4 µM
[1]
  IC50: 20 µM
[2]
  IC50: 1.6 µM

## CC(C)Nc1nccc(-c2c(-c3ccc(F)cc3)ncn2C2CCOCC2)n1
  IC50: 25 µM
[1]
  IC50: > 50 µM
[2]
  IC50: 16 µM

## CCCCn1nnnc1CSc1nc(C)cc(C)c1C#N
  IC50: 4 µM
[1]
  IC50: > 50 µM
[2]
  IC50: 3.2 µM

## O=C(NCCc1cccnc1)c1csc(-c2ccccc2)n1
  IC50: > 50 µM (inactive)
[1]
  IC50: > 50 µM
[2]
  IC50: > 50 µM

## CCOc1ccc(N(C)S(=O)(=O)c2ccc3[nH]cc(C(=O)NC4CCCC4)c(=O)c3c2)cc1
  IC50: 32 µM
[1]
  IC50: 25 µM
[2]
  IC50: 32 µM

## CNc1cncc(C2CCCN2C(=O)Cc2coc3cc(C)ccc23)n1 (configuration not stated)
  IC50: > 50 µM (inactive)
[1]
  IC50: > 50 µM
[2]
  IC50: 0.79 µM

## O=C(CN(Cc1ccccn1)Cc1ccccn1)NCc1ccc(-c2csnn2)cc1
  IC50: 5 µM
[1]
  IC50: > 79 µM
[2]
  IC50: 5 µM

## CCN(Cc1ccncc1)Cc1ccc(NC(=O)c2cc(-c3ccc(F)cc3)n[nH]2)cc1
  IC50: > 50 µM (inactive)
[1]
  IC50: 5 µM
[2]
  IC50: 2.5 µM

## Clc1ccc(Sc2cnccc2N2CCOCC2)cc1
  IC50: > 50 µM (inactive)
[1]
  IC50: > 50 µM
[2]
  IC50: 10 µM

## NS(=O)(=O)c1ccc(CNC(=O)c2ccc([N+](=O)[O-])s2)cc1
  IC50: 25 µM
[1]
  IC50: 40 µM
[2]
  IC50: 13 µM

## Cc1cc(NC(=O)c2ccc([N+](=O)[O-])s2)ccc1Br
  IC50: 2.5 µM
[1]
  IC50: 16 µM
[2]
  IC50: 1.6 µM

## NC(=O)c1ccsc1NC(=O)c1ccc([N+](=O)[O-])s1
  IC50: 1.6 µM
[1]
  IC50: 13 µM
[2]
  IC50: 1.3 µM

## Nc1nccc(-c2csc(Nc3ccc(Cl)cc3)n2)n1
  IC50: 1 µM
[1]
  IC50: > 50 µM
[2]
  IC50: 1 µM

## COCCn1c(-c2ccccc2)cnc1NCc1ccccc1OC
  IC50: 6.3 µM
[1]
  IC50: 50 µM
[2]
  IC50: 6.3 µM

## COc1cccc(S(=O)(=O)Nc2ccc3c(c2)CC(N2CCC(NC(=O)C4CC4)CC2)C3)c1 (configuration not stated)
  IC50: > 50 µM (inactive)
[1]
  IC50: > 50 µM
[2]
  IC50: 25 µM

## COc1ccc(-c2cnc(NC(=O)c3ccc(F)cc3)n2C)cc1
  IC50: 1.3 µM
[1]
  IC50: > 50 µM
[2]
  IC50: 0.5 µM

## CCCn1c(NC(=O)CCn2cc(Br)cn2)nc2ccccc21
  IC50: 10 µM
[1]
  IC50: > 50 µM
[2]
  IC50: 5 µM

## Cc1ccc(S(=O)(=O)Cn2nnnc2C(c2cccnc2)N2CCN(c3ccccc3)CC2)cc1 (configuration not stated)
  IC50: > 50 µM (inactive)
[1]
  IC50: > 50 µM
[2]
  IC50: > 50 µM

## Cc1nc(N2CCC(C(=O)N3CCC(O)(c4cccnc4)CC3)CC2)nc2ccc(C(C)C)cc12
  IC50: 50 µM
[1]
  IC50: 25 µM
[2]
  IC50: 10 µM

## CS(=O)(=O)NC1CCC(Nc2ncc(Br)c(Nc3ccccc3C(N)=O)n2)CC1 (configuration not stated)
  IC50: 2 µM
[1]
  IC50: 0.5 µM
[2]
  IC50: 0.79 µM

## COc1ccc([N+](=O)[O-])cc1NC(=O)Nc1cccc(Cl)c1
  IC50: > 50 µM (inactive)
[1]
  IC50: 50 µM
[2]
  IC50: > 50 µM

## O=C(NCCc1ccccc1Cl)c1cccn1-c1cccnc1
  IC50: > 50 µM (inactive)
[1]
  IC50: > 50 µM
[2]
  IC50: > 50 µM

## CCc1cccc(CC)c1-n1c(SCC(=O)N2CC(=O)Nc3ccccc32)nnc1-c1cccnc1
  IC50: > 50 µM (inactive)
[1]
  IC50: > 50 µM
[2]
  IC50: > 50 µM

## Cc1nn(C)c(Cl)c1CN(Cc1cccnc1)Cc1ccsc1
  IC50: > 50 µM (inactive)
[1]
  IC50: > 50 µM
[2]
  IC50: 3.2 µM

## CCOc1ccc(NC(=O)c2ccc(NC(=O)NC3CCCCC3)cc2)cc1
  IC50: 7.9 µM
[1]
  IC50: 4 µM
[2]
  IC50: 6.3 µM

## COc1cc(OC)cc(C(=O)N[C@@H](CC(C)C)C(=O)NC2(C#N)CC2)c1
  IC50: > 50 µM (inactive)
[1]
  IC50: > 50 µM
[2]
  IC50: > 50 µM

## O=C(CCCNC(=O)c1ccc(Cl)cc1)Nc1nc(-c2ccccn2)cs1
  IC50: 5 µM
[1]
  IC50: > 50 µM
[2]
  IC50: 3.2 µM

## O=C(Nc1nc(-c2ccccn2)cs1)N1C[C@H]2C[C@@]2(c2ccccc2)C1
  IC50: 0.5 µM
[1]
  IC50: 7.9 µM
[2]
  IC50: 0.4 µM

## CCc1ccccc1[C@@H](C)NC(=O)c1cnc2c(cnn2CC)c1NC1CCN(C(N)=O)CC1
  IC50: > 50 µM (inactive)
[1]
  IC50: > 50 µM
[2]
  IC50: > 50 µM

## CNS(=O)(=O)c1ccccc1Nc1nc(Nc2cc(C)nn2C)ncc1Cl
  IC50: 1 µM
[1]
  IC50: 0.2 µM
[2]
  IC50: 0.25 µM

## CC(=O)Nc1ccc(-c2noc(CC3CCCN(Cc4cccc(F)c4C)C3)n2)cc1 (configuration not stated)
  IC50: 32 µM
[1]
  IC50: > 50 µM
[2]
  IC50: 13 µM

## COc1ncc(-c2ccc3nccc(-c4ccncc4)c3c2)cc1NS(=O)(=O)C1CC1
  IC50: 1.3 µM
[1]
  IC50: 1 µM
[2]
  IC50: 0.32 µM

## CC(=O)Nc1ccc(-c2csc(NC(=O)c3ccc([N+](=O)[O-])s3)n2)cc1
  IC50: 1 µM
[1]
  IC50: 13 µM
[2]
  IC50: 0.79 µM

## CCCn1c(NC(=O)Cc2ccc(Cl)cc2)nc2ccccc21
  IC50: 5 µM
[1]
  IC50: > 50 µM
[2]
  IC50: 3.2 µM

## Oc1cccnc1-c1n[nH]c(Cc2ccccc2)n1
  IC50: 3.2 µM
[1]
  IC50: 16 µM
[2]
  IC50: 2 µM

## COc1ccc(S(=O)(=O)Nc2ccc(CN3CCN(C(=O)c4cccc(C#N)c4)CC3)cc2)cc1
  IC50: > 50 µM (inactive)
[1]
  IC50: > 50 µM
[2]
  IC50: > 50 µM

## CC(C)N(C(=O)CN1C(=O)C(N)C(=O)N(c2ccccc2)c2ccccc21)c1ccccc1 (configuration not stated)
  IC50: > 50 µM (inactive)
[1]
  IC50: > 50 µM
[2]
  IC50: > 50 µM

## CC(=O)Nc1nc(-c2cc(C)ccc2C)c(C)s1
  IC50: > 50 µM (inactive)
[1]
  IC50: > 50 µM
[2]
  IC50: 32 µM

## O=C(NCc1nnc2n1CCCCC2)c1ccc(-c2ccc(F)cc2)o1
  IC50: > 50 µM (inactive)
[1]
  IC50: > 50 µM
[2]
  IC50: > 50 µM

## O=C1CN(C2CCCc3c(OCc4ccncc4)cccc32)C(=O)N1C1CCCCC1 (configuration not stated)
  IC50: > 50 µM (inactive)
[1]
  IC50: > 50 µM
[2]
  IC50: > 50 µM

## O=C(NCCc1csc(-c2cccc(F)c2)n1)c1ccco1
  IC50: > 50 µM (inactive)
[1]
  IC50: > 50 µM
[2]
  IC50: > 50 µM

## Cc1ccc(NC(=O)c2ccc([N+](=O)[O-])s2)cc1S(=O)(=O)N1CCOCC1
  IC50: 3.2 µM
[1]
  IC50: 40 µM
[2]
  IC50: 2 µM

## NC(=O)c1ccccc1Nc1nc(NC2CCCCC2)nc2[nH]ccc12
  IC50: 13 µM
[1]
  IC50: 10 µM
[2]
  IC50: 13 µM

## Cc1nc2c(-c3ncn[nH]3)cc(NC(=O)Cc3ccccc3)cn2c1C
  IC50: 0.4 µM
[1]
  IC50: 7.9 µM
[2]
  IC50: 0.32 µM

## CCOc1ccc(NC(=O)C=Cc2ccc(CC)o2)cc1
  IC50: 50 µM
[1]
  IC50: 20 µM
[2]
  IC50: 25 µM

## Cc1ccccc1OCC(=O)N1CCCN(c2cccnn2)CC1
  IC50: > 50 µM (inactive)
[1]
  IC50: > 50 µM
[2]
  IC50: > 50 µM

## COCc1cc(Nc2ccc(Cl)cc2)nc(-c2ccccn2)n1
  IC50: 1.3 µM
[1]
  IC50: 20 µM
[2]
  IC50: 0.79 µM

## CC(C)(C)C(O)(CCc1ccc(Cl)cc1)Cn1cncn1 (configuration not stated)
  IC50: > 50 µM (inactive)
[1]
  IC50: > 50 µM
[2]
  IC50: > 50 µM

## COc1ccccc1-n1c(SCC(=O)Nc2ccc3c(c2)OCO3)nc2c(c1=O)SCC2
  IC50: 7.9 µM
[1]
  IC50: > 50 µM
[2]
  IC50: 5 µM

## CS(=O)(=O)c1ccc(CC(=O)Nc2nc(-c3ccc(Cl)s3)cs2)cc1
  IC50: > 50 µM (inactive)
[1]
  IC50: 16 µM
[2]
  IC50: > 50 µM

## Cc1ccc(NC(C)C(=O)Nc2ccc(C#N)cc2)cc1S(=O)(=O)N1CCCCC1 (configuration not stated)
  IC50: 10 µM
[1]
  IC50: 50 µM
[2]
  IC50: 5 µM

## Oc1c(-c2n[nH]c(Cc3ccc(Cl)cc3)n2)ncc2cccnc12
  IC50: 1.3 µM
[1]
  IC50: 20 µM
[2]
  IC50: 1 µM

## COCc1cc(Nc2ccccc2)nc(-c2ccccn2)n1
  IC50: 7.9 µM
[1]
  IC50: > 50 µM
[2]
  IC50: 5 µM

## N#Cc1ccc(S(=O)(=O)N2CCC3(CCN(c4ccccc4)C3=O)CC2)cc1
  IC50: > 50 µM (inactive)
[1]
  IC50: > 50 µM
[2]
  IC50: > 50 µM

## O=C1c2cnc(N3CCCC3)nc2CN1c1ccc2c(c1)OCO2
  IC50: 10 µM
[1]
  IC50: > 50 µM
[2]
  IC50: 6.3 µM

## COc1ccc2ncc(Cl)c(CCN3CC[C@H](NCc4cc5c(cn4)OCS5)[C@@H](O)C3)c2n1
  IC50: 1 µM
[1]
  IC50: 6.3 µM
[2]
  IC50: 0.5 µM

## CC(c1cc(Cl)cc(Cl)c1)N(C)c1ncc2c(N)nc(N)nc2n1 (configuration not stated)
  IC50: 0.79 µM
[1]
  IC50: 32 µM
[2]
  IC50: 0.25 µM

## O=C(CSc1ccc(F)cc1)N[C@@H](Cc1cnc[nH]1)C(=O)NCCc1ccccc1
  IC50: > 50 µM (inactive)
[1]
  IC50: > 50 µM
[2]
  IC50: > 50 µM

## O=C(Nc1nc(-c2ccc(S(=O)(=O)N3CCOCC3)cc2)cs1)c1ccc([N+](=O)[O-])cc1
  IC50: > 50 µM (inactive)
[1]
  IC50: 4 µM
[2]
  IC50: 2.5 µM

## CCCCn1c(=O)c2c(N)onc2n(CCCC)c1=O
  IC50: > 50 µM (inactive)
[1]
  IC50: > 50 µM
[2]
  IC50: 32 µM

## O=c1cc(NCCCNCc2cc(C(F)(F)F)cs2)[nH]c2ccccc12
  IC50: 40 µM
[1]
  IC50: 20 µM
[2]
  IC50: 25 µM

## O=C(Nc1ccc(S(=O)(=O)N2CCCC2)cc1)c1ccc([N+](=O)[O-])s1
  IC50: 1.6 µM
[1]
  IC50: > 50 µM
[2]
  IC50: 1 µM

## Cc1c([N+](=O)[O-])c(C(=O)Nc2sc3c(c2C#N)CCC(C)C3)nn1C (configuration not stated)
  IC50: 32 µM
[1]
  IC50: > 50 µM
[2]
  IC50: 16 µM

## O=c1cc(CSc2ccc(Cl)cc2)nc(-c2ccccn2)[nH]1
  IC50: 5 µM
[1]
  IC50: 4 µM
[2]
  IC50: 2 µM

## CS(=O)(=O)c1ccccc1C(=O)N(Cc1ccccc1)c1ccccc1
  IC50: > 50 µM (inactive)
[1]
  IC50: > 50 µM
[2]
  IC50: 16 µM

## Cc1ccc(Nc2nc(C3CCCN3Cc3ccn[nH]3)cs2)nc1 (configuration not stated)
  IC50: 1.6 µM
[1]
  IC50: 25 µM
[2]
  IC50: 1.3 µM

## Cc1nn(-c2ccccc2)nc1CNC(=O)CN(Cc1ccccn1)Cc1ccccn1
  IC50: 5 µM
[1]
  IC50: 63 µM
[2]
  IC50: 5 µM
